These results are taken from patent US20130217132A1, “METHODS, COMPOSITIONS AND USE FOR ENHANCING CHEMICAL TOLERANCE BY MICROORGANISMS” (priority 2009, published 2013).

Assay [1] relates to BW25113 araC::FRT-kan clone (JW0063). Nature of the assay: Cell growth (OD600) in MOPS minimal media with furfural, araC knockout. It counts as cell-based, E. coli. Conditions: furfural 1 g/L. On the procedure:
In other exemplary methods, tolerance and expression of LPS was restored in a microorganism. FIG. 19 represents an example of restoration of tolerance and LPS expression in BW25113 ArecA clone. The indicated cells were grown in MOPS minimal media supplemented with glucose as a carbon source. Furfural was added to the media at the concentration of 1 g/L. Arabinose was added at 10 mM where indicated to gauge effect of AraC binding. The BW25113 araC::FRT-kan clone corresponds to JW0063, a BW25113 araC knockout mutant ordered from the Keio Collection directly. pBTL-1 represented the blank vector, and pLPCA referred to lpcA gene overexpression. Consistent with the Examples above, overexpression of lpcA gene increased cell growth (OD600 of 0.1 vs. 0.05) in the presence of furfural. Addition of Arabinose to the lpcA gene overexpression cells could further enhance the effect (OD600 of 0.3). […] To analyze the LPS level in the cells indicated in FIG. 19, LPS are extracted from the cells grown to exponential phase. Loading of LPS for the protein gel is normalized to the cell number. The gel is stained to visualize LPS protein bands after desired separation is obtained.
BW25113, MG1655, and derivatives were used where indicated. JW0063, an araC mutant of BW25113 was obtained from the Coli Genetic Stock Center (Yale). Overnight bacterial cultures were grown in Luria-Bertani medium with shaking. […]

A further assay concerns pBTL-1 lpcA culture. Type of assay: cell-based, E. coli. Conditions: aerobic growth in 1 g/L furfural. On the procedure:
Certain experiments described herein were performed in E. coli BW25113 recA-, with the kanamycin resistance gene removed.
Cultures were grown in 10 ml MOPS minimal media, 100 μg carbenicillin/ml, and either 1 g furfural/1 supplemented, 2 g HMF/1, or 4 g acetate/1, in 15 ml conical tubes at 37° C. The optical density of 1 ml culture was measured with a spectrophotometer at 600 nm. A natural log transformation of the data was then calculated and then a regression line was fit to the data to calculate specific growth, which is […] to the culture doubling time. The blank vector, pBTL-1, served as the control. The lpcA gene was cloned into the pBTL-1 using standard cloning techniques and primers designed to amplify the gene from template DNA.

The subject of the next assay is BW25113 ArecA pLPCA. In words: MIC assay of furfural, lpcA overexpression strain. It counts as cell-based, E. coli. Conditions: Escherichia coli. On the procedure: (§1) In one exemplary method, assays were performed to determine minimum inhibitory concentration (MIC) of ethanol, furfural and acetate for BW25113 and MG1655 E. coli strains. […] Cells from each strain were inoculated from the same optical density into a total of 100 μL of varying furfural concentrations in a minimal media, for example using MOPS. Cell growth in the first 24 hr or 48 hr in the presence of furfural was monitored. The left bar in each pair for each indicated strain represents a first concentration of furfural that inhibited bacterial growth after 24 hr. The right bar for each strain represents the first concentration that inhibited growth after 48 hr. The MIC reads were the average of triplicates (n=3), and error bars represent standard deviation. […] ArecA signifies strains where the gene has been knocked out as previously described.
(§2) The minimum inhibitory concentration (MIC) of furfural of MG1655 and BW25113 with or without lpcA overexpression was determined. MIC assays were performed as described in Example 13. […] MIC reads were average of triplicates (n=3), and error bars represent standard deviation. The SDS-PAGE gel image in FIG. 17C represents LPS level of the cells indicated above the gel image (duplicate of each cell sample was presented). LPS was extracted from the indicated cells grown to exponential phase. Loading of LPS the SDS-PAGE gel was normalized to the cell number. The gel was stained for visualization after desired separation of LPS was obtained.
In another exemplary method, MIC was determined when MG1655 and BW25113 strains were fed with various carbon sources. MIC assays were performed in the presence of furfural. Glucose, Xylose or Ribose was supplemented with a minimal media for cell growth. […] MICs were read at the indicated time (24 hr or 48 hr), the average of triplicates was presented and error bars represent standard deviation. ‘Blank vector’ refers to the pBTL-1 vector, which served as the control. […]

In another assay the test system is E. coli LYO1. Conditions: cited from earlier work.
The next assay has as its system MG1655 E. coli strain. In words: Minimum inhibitory concentration (MIC) assay of furfural in MOPS minimal media. The conditions noted are these: Escherichia coli. Type of assay: cell-based. On the procedure:
as §1, §2

Converted amounts (≈) assume the structure as drawn. Like-named read-outs stand apart in the source and are kept apart here.

`O=Cc1ccco1` [furfural, furan-2-carbaldehyde]: the “OD600 (cell growth in the presence of furfural)” value in assay [1] (araC::FRT-kan without lpcA overexpression, no Arabinose) is given as 0.5; in assay [1] (araC::FRT-kan, Arabinose 10 mM), 1.0. The “Final OD600 (24 hr)” value in the assay on pBTL-1 lpcA culture is listed as 0.918. In addition, in the assay on pBTL-1 lpcA culture (n=3), the “Specific Growth” value was 0.153 h⁻¹. For the same compound, the MIC in the assay with BW25113 ArecA pLPCA (BW25113, read-out: MIC of furfural, BW25113 ArecA pLPCA, FIG. 17C) amounted to 1250 µg/mL; in the assay with BW25113 ArecA pLPCA (BW25113, read-out: MIC of furfural, pLPCA, glucose as carbon source, FIG. 18B) it was 1250 µg/mL; in the assay with BW25113 ArecA pLPCA (BW25113, read-out: MIC of furfural, pLPCA, xylose as carbon source, FIG. 18B), 1000 µg/mL; in the assay on MG1655 E. coli strain (MG1655, read-out: MIC of furfural) it was 1250 µg/mL; in the assay on MG1655 E. coli strain (MG1655, after 24 hr, n=3, read-out: MIC (first concentration of furfural that inhibited bacterial growth)) it was 1200 µg/mL (≈ 12.5 mM); in the assay with MG1655 E. coli strain (MG1655, after 48 hr, n=3, read-out: MIC (first concentration of furfural that inhibited bacterial growth)), 1800 µg/mL (≈ 18.7 mM). In the assay with E. coli LYO1, the ethanol production result was “inhibited”.
